Molecular target: EGFR (human) (UniProt P00533)
Conditions: huvec

Chain of EGFR (human) (P00533 whole entry, looked up): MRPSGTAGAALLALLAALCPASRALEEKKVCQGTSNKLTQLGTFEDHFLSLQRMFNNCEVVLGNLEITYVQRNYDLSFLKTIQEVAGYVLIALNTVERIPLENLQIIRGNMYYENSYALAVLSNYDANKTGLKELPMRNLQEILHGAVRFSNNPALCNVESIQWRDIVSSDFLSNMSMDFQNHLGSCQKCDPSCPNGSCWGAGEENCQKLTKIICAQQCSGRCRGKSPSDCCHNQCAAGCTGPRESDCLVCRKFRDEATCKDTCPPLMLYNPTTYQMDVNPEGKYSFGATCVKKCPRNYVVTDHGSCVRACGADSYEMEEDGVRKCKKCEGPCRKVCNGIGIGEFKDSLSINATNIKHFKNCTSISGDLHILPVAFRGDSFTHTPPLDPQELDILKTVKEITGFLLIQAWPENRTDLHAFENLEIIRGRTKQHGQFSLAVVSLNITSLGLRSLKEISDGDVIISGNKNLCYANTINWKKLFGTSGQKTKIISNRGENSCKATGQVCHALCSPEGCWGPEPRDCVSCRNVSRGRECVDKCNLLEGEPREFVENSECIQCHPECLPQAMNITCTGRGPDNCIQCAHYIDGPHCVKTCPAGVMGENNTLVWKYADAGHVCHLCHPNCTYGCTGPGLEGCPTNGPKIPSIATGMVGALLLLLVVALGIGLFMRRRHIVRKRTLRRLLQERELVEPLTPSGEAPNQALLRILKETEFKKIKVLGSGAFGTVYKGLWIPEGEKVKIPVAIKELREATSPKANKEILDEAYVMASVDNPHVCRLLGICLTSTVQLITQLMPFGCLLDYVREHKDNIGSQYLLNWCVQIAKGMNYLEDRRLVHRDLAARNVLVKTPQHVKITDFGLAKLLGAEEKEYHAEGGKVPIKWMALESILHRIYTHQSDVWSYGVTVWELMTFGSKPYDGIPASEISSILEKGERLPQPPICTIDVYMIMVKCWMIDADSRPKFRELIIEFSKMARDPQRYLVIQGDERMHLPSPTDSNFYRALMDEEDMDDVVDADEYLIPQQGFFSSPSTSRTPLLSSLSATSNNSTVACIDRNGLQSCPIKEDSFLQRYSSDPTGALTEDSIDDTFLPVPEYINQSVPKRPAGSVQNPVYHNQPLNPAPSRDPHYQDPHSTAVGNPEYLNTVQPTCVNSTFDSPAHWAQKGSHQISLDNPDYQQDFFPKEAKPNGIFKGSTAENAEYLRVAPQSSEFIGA

Structure (SMILES) | IC50 [nM]
COc1cc2c(Nc3c(F)cc(Cl)cc3F)ncnc2cc1OCC1CCNCC1 | 600
COc1cc2c(Nc3c(F)cc(Br)cc3F)ncnc2cc1OCC1CCN(C)CC1 | 400
COc1cc2c(Nc3ccc(Br)cc3F)ncnc2cc1OCCCN1CCN(C)CC1 | 90
COc1cc2c(Nc3ccc(Br)cc3F)ncnc2cc1OCC1CCNCC1 | 100
COc1cc2c(Nc3ccc(C)cc3F)ncnc2cc1OCC1CCNCC1 | 450
COc1cc2c(Nc3c(F)cc(Br)cc3F)ncnc2cc1OCC1CCNCC1 | 400
COc1cc2c(Nc3cc(O)c(Cl)cc3F)ncnc2cc1OCC1CCN(C)CC1 | 70
COc1cc2c(Nc3cc(O)c(C)cc3F)ncnc2cc1OCC1CCN(C)CC1 | 200
COc1cc2c(Nc3ccc(Cl)cc3F)ncnc2cc1OCC1CCNCC1 | 100

The next lines start with the values.

IC50 [nM] | Structure (SMILES)
200 | COc1cc2c(Nc3ccc(Cl)cc3F)ncnc2cc1OCCC1CCN(C)CC1
400 | COc1cc2c(Nc3ccc(C)cc3F)ncnc2cc1OCC1CCN(C)CC1
80 | COc1cc2c(Nc3ccc(Cl)cc3F)ncnc2cc1OC/C=C/CN1CCCC1
100 | COc1cc2c(Nc3ccc(Cl)cc3F)ncnc2cc1OCCCN1CCN(C)CC1
90 | COc1cc2c(Nc3ccc(Br)cc3F)ncnc2cc1OC/C=C/CN1CCCC1
1400 | COc1cc2c(Nc3ccc(C#N)cc3F)ncnc2cc1OC/C=C/CN1CCCC1
150 | COc1cc2c(Nc3ccc(Cl)cc3F)ncnc2cc1OC[C@@H]1CCCN(C)C1

— the Kinase Knowledgebase extract (Sharma et al. 2016)
